Laboratory results as given in PubChem BioAssay (NCI).
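Assay format: 96-well plates, 48-hour exposure. GI50 = concentration required for 50% inhibition of growth. TGI marks complete inhibition of growth.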

Legend:
Experiment in all cases: NCI anticancer screen, dose series, 48 h
[1] = tested on: UACC-257 melanoma
[2] = tested on: HCC-2998 colon
[3] = tested on: SR leukemia
[4] = tested on: OVCAR-4 ovarian
[5] = tested on: NCI-H226 lung
[6] = tested on: MOLT-4 leukemia
[7] = tested on: NCI-H23 lung
[8] = tested on: HCT-116 colon
[9] = tested on: K-562 leukemia
[10] = tested on: MALME-3M melanoma
[11] = tested on: SF-295 CNS
[12] = tested on: UO-31 renal
[13] = tested on: HT29 colon
[14] = tested on: HOP-62 NSCLC
[15] = tested on: MDA-MB-231 breast
[16] = tested on: LOX IMVI melanoma
[17] = tested on: SK-OV-3 ovarian
[18] = tested on: SNB-75 CNS
[19] = tested on: MDA-MB-435
[20] = tested on: RPMI-8226 leukemia
[21] = tested on: OVCAR-3 ovarian
[22] = tested on: SK-MEL-2 melanoma
[23] = tested on: COLO 205 colon
[24] = tested on: HL-60(TB) leukemia
[25] = tested on: KM12 colon
[26] = tested on: EKVX NSCLC
[27] = tested on: HS 578T breast
[28] = tested on: CCRF-CEM leukemia
[29] = tested on: SF-268 CNS
[30] = tested on: NCI-H522 lung
[31] = tested on: A498 renal
[32] = tested on: SW-620 colon
[33] = tested on: RXF 393 renal
[34] = tested on: SN12C renal
[35] = tested on: HOP-92 NSCLC
[36] = tested on: CAKI-1 renal
[37] = tested on: UACC-62 melanoma
[38] = tested on: ACHN renal
[39] = tested on: HCT-15 colon
[40] = tested on: SF-539 CNS
[41] = tested on: PC-3 prostate
[42] = tested on: A549 NSCLC
[43] = tested on: MCF7 breast
[44] = tested on: 786-0 renal
[45] = tested on: TK-10 renal
[46] = tested on: NCI/ADR-RES ovarian
[47] = tested on: BT-549 breast
[48] = tested on: SK-MEL-5 melanoma
[49] = tested on: OVCAR-8 ovarian
[50] = tested on: IGROV1 ovarian
[51] = tested on: DU-145 prostate
[52] = tested on: SNB-19 CNS
[53] = tested on: OVCAR-5 ovarian
[54] = tested on: SK-MEL-28 melanoma
[55] = tested on: NCI-H460 lung
[56] = tested on: U251 CNS

CN1C(=O)N(C)C2C1NN=c1s/c(=C\c3ccccc3F)c(=O)n12 (stereo unspecified)
GI50 [1]: > 100000 nM | TGI [1]: > 100000 nM | GI50 [2]: 422 nM | TGI [2]: > 100000 nM | GI50 [3]: 93 nM | TGI [3]: > 100000 nM | GI50 [4]: 1410 nM | TGI [4]: > 100000 nM | GI50 [5]: 1230 nM | TGI [5]: > 100000 nM | GI50 [6]: 520 nM | TGI [6]: > 100000 nM | GI50 [7]: 534 nM | TGI [7]: > 100000 nM | GI50 [8]: 354 nM | TGI [8]: > 56600 nM | GI50 [9]: 117 nM | TGI [9]: > 100000 nM | GI50 [10]: 325 nM | TGI [10]: > 100000 nM | GI50 [11]: 186 nM | TGI [11]: > 100000 nM | GI50 [12]: 657 nM | TGI [12]: > 100000 nM | GI50 [13]: 312 nM | TGI [13]: > 36700 nM | GI50 [14]: 480 nM | TGI [14]: > 100000 nM | GI50 [15]: 541 nM | TGI [15]: > 41600 nM | GI50 [16]: 565 nM | TGI [16]: > 100000 nM | GI50 [17]: 446 nM | TGI [17]: > 100000 nM | GI50 [18]: 80.7 nM | TGI [18]: 547 nM | GI50 [19]: 38.7 nM | TGI [19]: 184 nM | GI50 [20]: 364 nM | TGI [20]: > 66800 nM | GI50 [21]: 170 nM | TGI [21]: 680 nM | GI50 [22]: 629 nM | TGI [22]: > 100000 nM | GI50 [23]: 328 nM | TGI [23]: 1430 nM | GI50 [24]: 224 nM | TGI [24]: 633 nM | GI50 [25]: 198 nM | TGI [25]: > 60200 nM | GI50 [26]: 398 nM | TGI [26]: > 100000 nM | GI50 [27]: 287 nM | TGI [27]: > 100000 nM | GI50 [28]: 335 nM | TGI [28]: > 100000 nM | GI50 [29]: 1220 nM | TGI [29]: > 100000 nM | GI50 [30]: 229 nM | GI50 [31]: 175 nM | TGI [31]: 929 nM | GI50 [32]: 296 nM | TGI [32]: > 100000 nM | GI50 [33]: 159 nM | TGI [33]: 491 nM | GI50 [34]: 671 nM | TGI [34]: > 100000 nM | GI50 [35]: 8510 nM | TGI [35]: > 100000 nM | GI50 [36]: 140 nM | TGI [36]: > 100000 nM | GI50 [37]: 371 nM | TGI [37]: > 100000 nM | GI50 [38]: 684 nM | TGI [38]: > 100000 nM | GI50 [39]: 145 nM | TGI [39]: > 100000 nM | GI50 [40]: 217 nM | TGI [40]: 639 nM | GI50 [41]: 296 nM | TGI [41]: > 100000 nM | GI50 [42]: 439 nM | TGI [42]: > 100000 nM | GI50 [43]: 69 nM | TGI [43]: > 100000 nM | GI50 [44]: 741 nM | TGI [44]: > 100000 nM | GI50 [45]: > 20800 nM | TGI [45]: > 100000 nM | GI50 [46]: 229 nM | TGI [46]: > 100000 nM | GI50 [47]: 1390 nM | TGI [47]: > 100000 nM | GI50 [48]: 188 nM | TGI [48]: 4110 nM | GI50 [49]: 516 nM | TGI [49]: > 100000 nM | GI50 [50]: 633 nM | TGI [50]: > 100000 nM | GI50 [51]: 325 nM | TGI [51]: 23900 nM | GI50 [52]: 448 nM | TGI [52]: > 100000 nM | GI50 [53]: 496 nM | TGI [53]: > 100000 nM | GI50 [54]: 5750 nM | TGI [54]: > 100000 nM | GI50 [55]: 351 nM | TGI [55]: > 100000 nM | GI50 [56]: 356 nM | TGI [56]: > 100000 nM
